Data taken from patent US20210115401A1, “Methods and Materials for the Generation of Regulatory T Cells” (LIFE TECHNLOGIES AS, priority 2006, published 2021).

System: CD4+ T cells
Experiment: Surface marker (CD4, CD25, CXCR3) and intracellular FOXP3 analysis of expanded CD4+ T cells
Assay type: cell-based
Procedure: 1) Isolate CD4+ T cells from peripheral blood or leukopheresis products by the use of Dynal® CD4 Positive isolation kit, Dynal® CD4 Negative Isolation kit, Dynabeads® MyPure™ CD4 T cell kit, or CD4 Microbeads MACS®.
2) Stimulate 1.5×10^6 CD4+ T cells with anti-CD3/CD28 Dynabeads (3:1 bead: T cell ratio) in X-vivo medium with 1000 U/ml IL-4 (optional), 20 U/ml IL-2 and 1 μM final concentration of Rapamycin. Total medium volume should be 1.5 ml per 1.5×10^6 CD4+ T cells in a 24 well plate. The protocol can be scaled up.
3) On day 2, add a 10× concentrate that contains 10,000 U/ml IL-4 (optional) and […]. Add this in a volume that is 10% of the initial culture volume.
4) On day 4, add the cytokine concentrate similar to day 2.
5) On day 6, add the 10× cytokine concentrate again and take an aliquot to count the cells. This is the first time that the culture should be disturbed. Based on the count adjust the cell concentration to 1×10^6 CD4 cell/ml. Split wells and add culture medium containing Rapamycin, 1000 U/ml IL-4 (optional), 20 U/ml IL-2 to maintain cell concentration at 0.5×10^6 cells/ml.
6) From day 7 to day 12 count the cells daily. Split wells and add culture medium containing Rapamycin, 1000 U/ml IL-4 (optional), 20 U/ml IL-2 to maintain the cell concentration at 0.5×10^6 cells/ml. On day 12 the beads are removed using a magnet.
7) On day 14-15 the cells can be analyzed for surface marker expression and functional properties.
CD4+ T cells were isolated from peripheral blood by negative and/or positive isolation as described in Example 1. After expansion with IL-2, +/−IL-4, CD3/CD28 Dynabeads®, with or without Rapamycin the expanded cells were analyzed for various surface markers (CD4, CD25, CD62L, CRTh2, CCR4, CXCR3, CCR7) and for intracellular FOXP3 expression and cytokine secretion. Suppressive capacity was analyzed in standard functional assays as described below.

CO[C@H]1C[C@@H]2CC[C@@H](C)[C@@](O)(O2)C(=O)C(=O)N2CCCC[C@H]2C(=O)O[C@H]([C@H](C)C[C@@H]2CC[C@@H](O)[C@H](OC)C2)CC(=O)[C@H](C)/C=C(\C)[C@@H](O)[C@@H](OC)C(=O)[C@H](C)C[C@H](C)/C=C/C=C/C=C/1C [Rapamycin]
expanded cells expressing high levels of CD25 (CD4+ T cells expanded with CD3/CD28 Dynabeads, IL-2, +/−IL-4 and Rapamycin): Approximately 70% | CD4+CD25+ T cells among expanded cells (flow cytometry, FIG. 2) (CD4+ T cells expanded with rapamycin, 20% in the absence of rapamycin): 80% | cells expressing FOXP3 after expansion (after expansion with or without Rapamycin, freshly isolated CD4+ T cells 10%): 10%
